This note sets out measurements from patent US10092515B2, “Liposomal formulations of polymyxin B and uses thereof” (University of Houston System, priority 2012, dated 2018).

The nature of series [1]: Kidney exposure after IV polymyxin liposome or solution (USP). It is filed as in vivo, mice. The conditions noted are these: for AUC(0-t) / AUC0-6 h, kidney: female, ND4 Swiss Webster.
Series [2] in a line: Epithelial lining fluid (ELF) pharmacokinetics after intravenous polymyxin B liposomes or aqueous solution (USP). In kind it is in vivo, Swiss Webster mice. The conditions noted are these: for AUC(0-t): female, ND4 Swiss Webster, n = 4, read-out: AUC0-6 h, epithelial lining fluid. On the procedure:
(§1) The animal protocol was approved by the University of Houston Institutional Animal Care and Use Committee. The animals received food and water ad libitum. Two groups of 24 female ND4 Swiss Webster mice (20-23 g, Harlan Laboratory, Indianapolis, Ind.) were intravenously administrated PB liposomes and aqueous solution (USP), respectively, at approximately 3 mg/kg through the tail vein. At each time point (0.1, 0.5, 1, 2, 4 and 6 h post-dose), four mice were sacrificed for blood and epithelial lining fluid sample collection. The blood samples were clotted on crushed ice and the serum was obtained by centrifugation. The epithelial lining fluid samples were obtained by bronchoalveolar lavage. All the serum and epithelial lining fluid samples were stored at −80° C. until analysis.
(§2) Four major polymyxin B components in serum and epithelial lining fluid samples were assayed by a validated UPLC-MS/MS method. An Acquity UPLC HSS C18 column was used with 0.1% formic acid/acetonitrile as mobile phases. Analysis was performed in positive ionization mode with multiple reactions monitoring (MRM) scan type. Briefly, the serum and epithelial lining fluid samples (200 μl) were spiked with 20 μl of carbutamide (internal standard). Two hundred μl of 5% trichloroacetic acid was added to precipitate the proteins, followed by 1 min of vortexing. After centrifugation at 18,000× g for 15 min, the supernatant was transferred to a new tube and evaporated to dryness under a stream of nitrogen. The residue was reconstituted in 100 μl of mobile phase (acetonitrile: 0.1% formic acid=50:50) and then centrifuged at 18,000×g for 15 minutes. Ten μl of supernatant was injected into the UPLC-MS/MS for quantitative analysis. The linear concentration range was 6.5-3200 ng/ml for both serum and epithelial lining fluid samples. The intra-day and inter-day variance was less than […] for all the components in both serum and epithelial lining fluid. The concentration of drug in epithelial lining fluid (CELF) was corrected using the equation: CELF=CBALF× Ureaserum/UreaBALF, where UreaBALF and Ureaserum were the concentrations of urea in bronchoalveolar lavage fluid (BALF) and serum, respectively (18).
(§3) Concentrations of urea in serum and BALF samples were quantified with a commercially available assay kit (Quantichrom™ Urea Assay kit, BioAssay System, Hayward, Calif.) and measured on a Synergy2 microplate reader (BioTek Instrument, Winooski, Vt.). Drug exposures observed in both serum and epithelial lining fluid were normalized by the specific dose of each batch of liposomes to account for the variances among different pharmacokinetic experiments. Naïve data averaging was used; the best-fit pharmacokinetic parameters as well as drug exposure in serum and ELF were calculated by WinNonlin 3.3 (Pharsight Corporation, Mountain View, Calif.) using a one-compartment model and non-compartmental analysis, respectively. Statistical differences between liposome and aqueous solution were determined by Mann-Whitney test at the significance level of p≤0.05.

Series [3] is described as follows: Serum pharmacokinetics after intravenous polymyxin B liposomes or aqueous solution (USP). In kind it is in vivo, Swiss Webster mice. To be noted: for AUC(0-t): n = 4, normalized by dose, read-out: AUC0-6 h. The protocol: as §1, §2, §3
For another series, the system named is Lrp2/megalin. Description: Urinary excretion of megalin after maleate administration (ELISA). It is filed as in vivo. To be noted: rats, single 400 mg/kg intraperitoneal dose. On the procedure:
Three rats were housed individually in separate metabolic cages 24 h prior to maleate pretreatment. A single dose of 400 mg/kg of sodium maleate was given intraperitoneally; this was previously reported to induce reversible ultrastructural modifications in the apical brush border membrane of proximal renal tubules (34). To study megalin urinary excretion, cumulative urine was collected daily from day −1 to day 15. The urine samples were spun down to remove particulate matter. Subsequently, the urine samples were aliquoted and stored at −80° C. prior to analysis. The samples were thawed, and urinary Lrp2/megalin concentrations were quantitatively measured using a commercially available ELISA kit for megalin. For each animal, the daily megalin concentrations were expressed as a normalized ratio to the baseline megalin value.
On the technique in general: An ELISA detects its analyte on a solid surface through an enzyme-linked reagent.

The subject of another series is proximal tubules. Nature of the series: Electron microscopy of maleate-treated kidney sections. In kind it is in vivo. To be noted: rats. The protocol:
For morphological studies, one animal was sacrificed at 3 h and another at 14 days after maleate administration to collect the kidneys. The harvested kidneys were submitted for electron microscopic studies. Tissue samples from both renal cortical and medullary regions were fixed in 2% glutaraldehyde at 4° C. overnight, followed by additional fixation in osmium tetroxide. The renal tissue was dehydrated and embedded in epoxy resin. Approximately 1-μm pilot sections were stained with toluidine for selection of the areas for further ultrastructural examination. Thin sections of these selected areas were cut and subjected to examination under a JEOL 300 electron microscope at 80 kV. The kidneys from two naive rats were harvested, processed in a similar fashion, and used as controls.

[4] abbreviates: mouse, in vivo, iv, 3 mg/kg, AUC0-6 h, kidney.
[5] abbreviates: female, ND4 Swiss Webster, mouse, in vivo, iv.

Like-named read-outs stand apart in the source and are kept apart here. Where a SMILES comes first, the peptide text is derived from it. Bridges are numbered along the chain shown (N, C = ends). [ ]: non-standard residue; d: D form. The star is where a group is joined. Heptanoyl(6-Me) = CC(C)CCCCC(=O)*; X1 = CC[C@H](C)CCCCC(=O)*; Octanoyl = CCCCCCCC(=O)*; Dab = NCC[C@H](N)C(=O)O

`CC[C@H](C)CCCCC(=O)N[C@@H](CCN)C(=O)N[C@H](C(=O)N[C@@H](CCN)C(=O)N[C@H]1CCNC(=O)[C@H]([C@@H](C)O)NC(=O)[C@H](CCN)NC(=O)[C@H](CCN)NC(=O)[C@H](CC(C)C)NC(=O)[C@@H](Cc2ccccc2)NC(=O)[C@H](CCN)NC1=O)[C@@H](C)O` [PB1, polymyxin B1] (X1-[Dab]T[Dab][Dab][Dab][dF]L[Dab][Dab]T; lactam 4-C): the AUC(0-t) was 28400 ng·h/mL in series [1] (mouse, in vivo, iv, 3 mg/kg, kidney, mice, IV 3 mg/kg polymyxin liposome, n = 24, read-out: AUC0-6 h, kidney); 34200 ng·h/mL in series [1] (mouse, in vivo, iv, 3 mg/kg, kidney, mice, IV 3 mg/kg polymyxin solution (USP), n = 24, read-out: AUC0-6 h, kidney); 9750 ng·h/mL in series [2] (mouse, in vivo, iv, 3 mg/kg, ELF, mice, IV 3 mg/kg polymyxin liposome); 1570 ng·h/mL in series [2] (mouse, in vivo, iv, 3 mg/kg, ELF, mice, IV 3 mg/kg polymyxin solution (USP)); 4770 ng·h/mL in series [3] (female, ND4 Swiss Webster, mouse, in vivo, iv, 3 mg/kg, serum, mice, IV polymyxin B liposomes approx. 3 mg/kg); 2760 ng·h/mL in series [3] (female, ND4 Swiss Webster, mouse, in vivo, iv, 3 mg/kg, serum, mice, IV polymyxin B solution (USP) approx. 3 mg/kg). Moreover, in series [1] (kidney, mice, IV 3 mg/kg), the “AUC ratio (liposome:solution), kidney” value is 0.83. Moreover, the “AUC ratio (liposome:solution), epithelial lining fluid” value (shortened to “AUC ratio … epithelial lining fluid”) in series [2] (ELF, mice, IV 3 mg/kg) amounted to 6.21. Further, in series [3] (female, ND4 Swiss Webster, mouse, in vivo, 3 mg/kg, serum, mice, IV polymyxin B liposomes, one-compartment model, read-out: T1/2 (elimination half-life) (converted)), the half-life is 36 min. Further, the total clearance in series [3] (mice, IV aqueous solution approx. 3 mg/kg) turned out to be 1.4±0.5 I/h/kg; in series [3] (mice, IV liposomal formulation approx. 3 mg/kg), 0.6±0.3 I/h/kg.
The clearance is a measure of how efficiently the substance is removed, as volume per time. For the molecule `CC(C)CCCCC(=O)N[C@@H](CCN)C(=O)N[C@H](C(=O)N[C@@H](CCN)C(=O)N[C@H]1CCNC(=O)[C@H]([C@@H](C)O)NC(=O)[C@H](CCN)NC(=O)[C@H](CCN)NC(=O)[C@H](CC(C)C)NC(=O)[C@@H](Cc2ccccc2)NC(=O)[C@H](CCN)NC1=O)[C@@H](C)O` [PB2, polymyxin B2] ({Heptanoyl(6-Me)}-[Dab]T[Dab][Dab][Dab][dF]L[Dab][Dab]T; lactam 4-C (inferred)), in series [1] (mouse, in vivo, iv, 3 mg/kg), the “AUC0-6 h, kidney” value was found to be 12240 ng·h/mL and the “AUC ratio (liposome:solution), kidney” value was 0.77. The molecule further displayed an AUC(0-t) in series [1] (setting [4]) of 9440 ng·h/mL. In addition, the “time post-dose up to which the component could be quantified in ELF” value (shortened to “time post-dose up”) in series [2] (mouse, in vivo, iv) is reported as “up to 2 h”. In addition, the “AUC ratio … epithelial lining fluid” value in series [2] (mouse, in vivo, iv, 3 mg/kg) was 11.10. In series [3] (setting [5]), the clearance is 5.14 mL/min/kg and the half-life was 26.4 min. Moreover, in series [3] (mouse, in vivo, iv), the “Cl (clearance)” value was 14.998 mL/min/kg, the “T1/2 (elimination half-life)” value was determined as 12.6 min and the “Vss (volume of distribution at steady state)” value stood at 0.27474 L/kg.
As for `O=C([O-])/C=C\C(=O)[O-].[Na+].[Na+]` [maleate, Sodium maleate dibasic salt], in the series on Lrp2/megalin, the “elevation in the level of urinary megalin” value was “approximately 20 times the baseline measurement” and the “time until urinary megalin levels reverted to baseline” value was “approximately 11 days”. Also, the “electron microscopic findings in kidney” value in the series on proximal tubules (two weeks after 400 mg/kg intraperitoneally) is “no significant changes”. The “electron microscopic findings in kidney” value with proximal tubules (within 3 h after 400 mg/kg intraperitoneally) was “morphological and ultrastructural changes in the proximal tubules”.
In the case of `CC[C@H](C)CCCCC(=O)N[C@@H](CCN)C(=O)N[C@H](C(=O)N[C@@H](CCN)C(=O)N[C@H]1CCNC(=O)[C@H]([C@@H](C)O)NC(=O)[C@H](CCN)NC(=O)[C@H](CCN)NC(=O)[C@H]([C@@H](C)CC)NC(=O)[C@@H](Cc2ccccc2)NC(=O)[C@H](CCN)NC1=O)[C@@H](C)O` [ile-PB1, isoleucine polymyxin B1] (X1-[Dab]T[Dab][Dab][Dab][dF]I[Dab][Dab]T; lactam 4-C), in series [1] (mouse, in vivo, iv, 3 mg/kg), the “AUC0-6 h, kidney” value came out at 4980 ng·h/mL and the “AUC ratio (liposome:solution), kidney” value came to 0.84. The molecule further came in with an AUC(0-t) in series [1] (setting [4]) of 4160 ng·h/mL. Moreover, in series [2] (mouse, in vivo, iv), the “time post-dose up” value is reported as “up to 4 h”. The “AUC ratio … epithelial lining fluid” value in series [2] (mouse, in vivo, iv, 3 mg/kg) was found to be 4.55. Further, the half-life in series [3] (setting [5]) was 25.2 min. The “T1/2 (elimination half-life)” value in series [3] (mouse, in vivo, iv) was found to be 17.4 min.
`CCCCCCCC(=O)N[C@@H](CCN)C(=O)N[C@H](C(=O)N[C@@H](CCN)C(=O)N[C@H]1CCNC(=O)[C@H]([C@@H](C)O)NC(=O)[C@H](CCN)NC(=O)[C@H](CCN)NC(=O)[C@H](CC(C)C)NC(=O)[C@@H](Cc2ccccc2)NC(=O)[C@H](CCN)NC1=O)[C@@H](C)O` [PB3, polymyxin B3] (Octanoyl-[Dab]T[Dab][Dab][Dab][dF]L[Dab][Dab]T; lactam 4-C): the “AUC ratio (liposome:solution), kidney” value in series [1] (mouse, in vivo, iv, 3 mg/kg) is reported as 0.37. Also, the “time post-dose up” value in series [2] (mouse, in vivo, iv) is “up to 2 h”. Further, the “AUC ratio … epithelial lining fluid” value in series [2] (mouse, in vivo, iv, 3 mg/kg) is listed as 4.92. The half-life in series [3] (setting [5]) was 18 min. For the same molecule, the “T1/2 (elimination half-life)” value in series [3] (mouse, in vivo, iv) turned out to be 16.8 min.
